Test results: US20050202515A1, “Functional method for generating or screening for ligands which modulate steroid hormone receptors” (Wyeth, priority 2004, published 2005)
Ends that are not written are not given here.

How the values were obtained:
Erk 1 and 2 = test: Western blotting analysis of Erk 1 and 2 phosphorylation in UMR-106 cells; type: cell-based, rat
Description: Western blotting analysis. […] After 48 h cells were treated with 10 nM 1,25(OH)2D3 for the indicated time. […] Cell debris were removed by centrifugation and equal amount of protein was run on SDS-PAGE. Separated proteins were transferred to nitrocellulose membrane and levels of MNAR, ERK, and p-ERK were determined by western blotting analysis.

osteocalcin = test: Quantitative PCR (TaqMan) analysis of osteocalcin in UMR-106 cells; type: cell-based, rat; conditions: 100 nM, 24 h
Description: (§1) Quantitative PCR (TaqMan) analysis. […] Following transfection cells were cultured in media supplemented with 2% charcoal stripped FBS. 16 hours after the transfection cells were treated with 100 nM 1,25(OH)2 Vit.D3 for 24 or 48 hours. Cells were lysed and total RNA was isolated using RNeasy Kit (Quiagen). Quantitative PCR (TaqMan) was performed to determine osteocalcin levels in UMR-106 cells and alkaline phosphatase levels in ROS 17/2.8 cells.

alkaline phosphatase = test: Quantitative PCR (TaqMan) analysis of alkaline phosphatase in ROS 17/2.8 cells; type: cell-based, rat; conditions: overexpression of MNAR, 100 nM, 48 h
Description: as §1

[1] = molecular target: T1, GST-VDR ligand binding domain fusion protein (Homo sapiens, UniProt P11473); test: GST pull-down interaction analysis; conditions: 35S-radiolabeled full length MNAR; absence or presence of 100 nM 1,25(OH)2 Vit. D3
T1 construct: made in house; host or cells: E. coli BL-21 (GST-VDR-LBD); Promega TNT Quick Coupled Transcription/Translation System (MNAR)
Description: GST pull-down interaction analysis. A GST fusion to the ligand binding domain of VDR, amino acids 110-427, termed GST-VDR-LBD, was expressed in BL-21 cells and bound to glutathione-Sepharose 4B (Amersham Biosciences, Piscataway, NJ). Wild type MNAR was transcribed/translated and ^35S radiolabeled using Promega TNT Quick Coupled Transcription/Translation System (Madison, Wis.) and incubated for 1 hour at room temperature with GST-VDR-LBD fusion protein bound to glutathione-Sepharose 4B in the absence or presence of 100 nM 1,25(OH)2 Vit. D3 in binding buffer (50 mM Tris pH 8.0, 150 mM NaCl, 1 mM DTT, 1 mM PMSF, 1 mM EDTA, 0.05% NP-40, 1× Protease cocktail). Beads were then washed 4 times with the binding buffer and bound proteins were eluted by addition of SDS buffer and analyzed by SDS-PAGE and autoradiography.

GST-VDR-LBD = molecular target: T2, GST-VDR-LBD (Homo sapiens, UniProt P11473); test: ELISA-based VDR-MNAR interaction analysis; type: binding; conditions: GST-VDR-LBD preincubated with vehicle or 1 μM 1,25(OH)2D3; peptide 50 μM
T2 construct: made in house; host or cells: E. coli BL-21
T2 sequence (P11473 110-427): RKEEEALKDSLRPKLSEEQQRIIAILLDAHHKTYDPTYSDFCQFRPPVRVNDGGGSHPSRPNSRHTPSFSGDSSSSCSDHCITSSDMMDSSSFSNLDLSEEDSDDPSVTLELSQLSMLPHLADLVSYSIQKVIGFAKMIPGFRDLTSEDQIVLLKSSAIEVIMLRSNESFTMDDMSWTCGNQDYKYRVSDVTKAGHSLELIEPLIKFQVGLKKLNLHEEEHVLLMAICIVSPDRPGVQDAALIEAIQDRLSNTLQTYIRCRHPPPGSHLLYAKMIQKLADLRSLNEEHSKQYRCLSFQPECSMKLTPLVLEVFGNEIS
Description: ELISA-based VDR-MNAR interaction analysis. A rapid, nonisotopic ELISA-type method was used for characterization of VDR-MNAR interactions. Biotinylated peptides corresponding to different MNAR's LXXLL motifs (designated 1-9, sequentially from the most N-terminal motif) were synthesized and immobilized on a Reacti-Bind™ NeutrAvidin™-coated microplate (Pierce Biotechnology, Rockford, Ill.). The microplate was washed twice with binding buffer (50 mM Tris-HCL, pH 8.0, 150 mM NaCl, 1 mM DTT, 1 mM EDTA, 0.01% NP-40, and 0.01% BSA). Peptides were diluted in 100 μl binding buffer to a final concentration of 50 μM and incubated with the Reacti-Bind™ NeutrAvidin™ coated microplate for 1 hour at room temperature, washed 4 times with the binding buffer. GST-VDR-LBD, preincubated with vehicle or 1 μM 1,25(OH)2D3, was allowed to interact with the immobilized peptide corresponding to one of each of the MNAR LXXLL motifs for 2 hours at room temperature. The plate was washed 4 times with binding buffer and incubated with anti-GST antibodies fused to HRP (Sigma, St. Louis, Mo.) for 1 h in binding buffer and washed 4 more times. SuperSignal® ELISA Pico Chemiluminescent Substrate (Pierce Biotechnology, Rockford, Ill.) was used to detect antigen/antibody complex, signal was read using a Wallac Victor2 1420 Multilabel Counter (PerkinElmer Lifesciences, Boston, Mass.).

PI3-K = PI3-K activity in p85 immunoprecipitates from MCF-7 cells; type: cell-based
Description: Transfections and cell lysates preparation. […] Cell debris was removed by centrifugation.
Immunoprecipitation and kinase assays.
For PI3-K reaction, p85 was immunoprecipitated from cell lysates as described above. Kinase activity in the immunoprecipitate was detected using PI3-Kinase ELISA kit from Echelon Biosciences according to the manufacture's instructions. Briefly, reaction was run in 50 μl volume by adding 5 μl of 10× reaction buffer and 10 μl of PI(4,5)P2 substrate solution (10 μM) to the p85 immunoprecipitate. After the PI3-K reactions was complete, reaction products are first mixed and incubated with a PI(3,4,5)P3 detecting antibody, then added to the PI(3,4,5)P3-coated microplate for competitive binding. A peroxidase-linked secondary detection reagent and colorirnetric detection was used to detect PI(3,4,5)P3 detecting antibody binding to the plate. The colorimetric signal was inversely proportional to the amount of PI(3,4,5)P3 produced by PI 3-K activity.

Akt [2] = test: Akt kinase activity in immunoprecipitate (GSK-3 substrate) from MCF-7 cells; type: cell-based; conditions: MNAR overexpression, estradiol for 20 min
Description: Transfections and cell lysates preparation. […] Cell debris was removed by centrifugation. […] Briefly, […] of GSK-3 fusion protein was added to the Akt-immunoprecipitate as a substrate. Kinase reaction was run in a reaction buffer supplied by the manufacturer. The level of p-GSK-3 produced in the kinase reaction was analyzed by western blotting analysis.

Akt [3] = test: Western blotting analysis of phosphorylated Akt in MCF-7 cells; type: cell-based
Description: Transfections and cell lysates preparation. […] Cell debris was removed by centrifugation. […] Equal amount of protein from cell lysates was run on SDS-PAGE. Separated proteins were transferred to nitrocellulose membrane and levels of Akt and p-Akt were determined by western blotting analysis. Akt antibody was from Cell Signaling (anti-Akt cat#9272, anti-p-Akt cat# 9271).

T1 sequence (Q8IZL8 whole entry E896G/T1069P partner, one chain of several, the tested form may be a part): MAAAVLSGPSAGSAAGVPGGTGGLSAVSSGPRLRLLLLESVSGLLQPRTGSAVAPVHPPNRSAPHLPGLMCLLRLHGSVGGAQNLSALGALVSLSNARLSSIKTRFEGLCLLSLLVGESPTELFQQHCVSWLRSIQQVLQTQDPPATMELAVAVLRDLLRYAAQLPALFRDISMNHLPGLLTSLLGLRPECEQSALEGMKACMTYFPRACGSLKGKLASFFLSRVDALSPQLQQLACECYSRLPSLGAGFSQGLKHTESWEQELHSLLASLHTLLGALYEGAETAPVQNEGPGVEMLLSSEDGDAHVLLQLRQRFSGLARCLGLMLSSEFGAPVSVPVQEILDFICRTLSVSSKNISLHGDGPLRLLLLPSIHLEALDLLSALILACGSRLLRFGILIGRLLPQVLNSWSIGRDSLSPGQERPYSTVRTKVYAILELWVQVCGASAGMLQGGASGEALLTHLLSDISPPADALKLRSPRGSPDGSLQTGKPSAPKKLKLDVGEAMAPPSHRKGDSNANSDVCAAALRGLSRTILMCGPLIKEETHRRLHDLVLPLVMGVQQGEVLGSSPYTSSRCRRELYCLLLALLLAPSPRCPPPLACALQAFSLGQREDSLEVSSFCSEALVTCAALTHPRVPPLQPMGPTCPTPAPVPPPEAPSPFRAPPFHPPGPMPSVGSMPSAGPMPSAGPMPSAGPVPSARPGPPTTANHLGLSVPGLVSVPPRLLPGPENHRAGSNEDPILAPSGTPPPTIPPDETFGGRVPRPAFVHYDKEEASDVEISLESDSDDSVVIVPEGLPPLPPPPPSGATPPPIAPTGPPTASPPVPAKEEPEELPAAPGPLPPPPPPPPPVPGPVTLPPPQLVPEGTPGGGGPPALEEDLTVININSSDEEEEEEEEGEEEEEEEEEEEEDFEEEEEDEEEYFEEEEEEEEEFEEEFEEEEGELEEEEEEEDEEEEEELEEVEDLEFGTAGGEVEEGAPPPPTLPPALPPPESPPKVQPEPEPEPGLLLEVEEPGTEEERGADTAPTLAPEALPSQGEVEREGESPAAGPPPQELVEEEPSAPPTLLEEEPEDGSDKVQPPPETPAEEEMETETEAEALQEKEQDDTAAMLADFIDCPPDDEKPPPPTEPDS

Which Erk phosphorylation (Erk 1 and 2; MNAR overexpression, 10 nM) does the source give for `C=C1/C(=C\C=C2/CCC[C@]3(C)[C@@H]([C@H](C)CCCC(C)(C)O)CC[C@@H]23)C[C@@H](O)C[C@@H]1O` [1,25(OH)2 Vit D3, 1,25 dihydroxy vitamin D3] here?
The Erk phosphorylation was “dramatic increase in Erk phosphorylation”.

And the “levels of phosphorylated Erk 1 and 2” value (Erk 1 and 2; absence of MNAR (control vector), 10 nM for 10 or 20 min)?
The value was “augmentation of the levels of phosphorylated Erk 1 and 2”.

What about the “1,25(OH)2 Vit D3-stimulated levels of osteocalcin” value (osteocalcin; MNAR overexpression) of the same compound?
Its value is “strong potentiation”.

And the “level of osteocalcin expression” value (osteocalcin; control plasmid)?
Its value is “did not affect”.

And the “induction of AP expression level” value (alkaline phosphatase)?
The value was “strongly enhanced”.

How did the “MNAR interaction with VDR-LBD” value [1] turn out when “MNAR: modulator of nongenomic activity of estrogen receptor, scaffold protein, GenBank AF547989” was run?
The value was “directly interacts with VDR-LBD in a ligand-dependent manner”.

Which “VDR ligand binding domain interaction with immobilized MNAR LXXLL peptide” value (GST-VDR-LBD) does the source give for “MNAR LXXLL motif #5: biotinylated peptide corresponding to the fifth LXXLL motif of MNAR, counted from the most N-terminal motif (LPGLLTSLL; also: biotinylated, site not given here)” here?
The value was “ligand-dependently interacted”.

What does the source list for `C[C@]12CC[C@@H]3c4ccc(O)cc4CC[C@H]3[C@@H]1CC[C@@H]2O` [estradiol, 17β-estradiol]?
estrogen-dependant activation of PI3-K (PI3-K; MCF-7 cells, MNAR overexpression, 10 nM estradiol for 20 min): increased; PI3-kinase activity (PI3-K; MCF-7 cells, 10 nM for 20 min): stimulation of the PI3-kinase activity; estradiol induced Akt activation (GSK-3 phosphorylation) (Akt [2]): stimulates; phospho-Akt level (Akt [3]; MCF-7 cells transfected with MNAR-expressing plasmid vs empty vector, 10 nM estradiol for 20 min): strong increase in phospho-Akt level; level of phospho-Akt (Akt [3]; MCF-7 cells, 10 nM for 20 min): increased the level of phospho-Akt

With `C[C@]12CC[C@@H]3c4ccc(O)cc4C[C@@H](CCCCCCCCC[S+]([O-])CCCC(F)(F)C(F)(F)F)[C@H]3[C@@H]1CC[C@@H]2O` (stereo partly shown) [ICI 182 780] as the compound, how does the “effect on estradiol activation of PI3-K activity” value (PI3-K; MCF-7 cells treated with 10 nM estradiol for 20 min) read?
The value was “blocked”.
